Results as given in patent US20050186617A1, “Gene screening method using nuclear receptor” (Chugai Seiyaku Kabushiki Kaisha, a Japanese corporation, priority 1997, published 2005).

Legend:
GAL4-VDR(DEF) = assay: CAT reporter assay in COS-1 cells co-transformed with GAL4-VDR(DEF) and 17M2-G-CAT; format: cell-based
1α (OH)-ase gene = assay: Northern blot of CYP1AD (1α(OH)-ase) gene expression in mice given excess 1α,25(OH)2D3; format: in vivo; conditions: 50 ng/mouse
Excerpt: The tissue distribution of CYP1AD transcripts in 7-week-old normal and VDR−/− mice was examined. Poly(A)^+ RNA was extracted from brain, lung, heart, liver, spleen, kidney, small intestine, skeletal muscle, skin, and bone, and analyzed by northern blot technique using cDNA of CYP1AD and β-actin as probes (K. Takeyama et al., Biochem. Biophys. Res. Commun. 222, 395 (1996); H. Mano et al., J. Biol. Chem. 269, 1591 (1994)). As the result, the transcript of CYP1AD was detected as a single band in the kidney. The size of the transcript (2.4 kbp) is identical to that of cloned cDNA (FIG. 10). Except for kidney, in, 1α (OH)-ase activity has been reported in other tissues than kidney (A. W. Norman, J. Roth, L. Orchi, Endocr. Rev. 3, 331 (1982); H. F. DeLuca, Adv. Exp. Med. Biol. 196, 361 (1986); M. R. Walters, Endocr. Rev 13, 719 (1992); G. A. Howard, R. T. Turner, D. J. Sherrard, D. J. Baylink, J. Biol. Chem. 256, 7738 (1981); T. K. Gray, G. E. Lester, R. S. Lorenc, Science 204, 1311 (1979)). However, the transcript of 1α (OH)-ase was not detected in tissues other than kidney in this experiment.
The relative amount of the hydroxylase gene standardized with the β-actin gene transcripts was measured in at least 5 mice for each group (FIG. 12).

| SMILES | activation of the CAT reporter gene (GAL4-VDR(DEF); CYP1AD expressed, with ADX and ADR expression vectors) | activation of the CAT reporter gene (GAL4-VDR(DEF); in the absence of ADX or ADR) | expression of the 1α (OH)-ase gene (1α (OH)-ase gene; 3- and 7-week-old VDR−/− mice) | expression of the 1α (OH)-ase gene (1α (OH)-ase gene; VDR+/+ and VDR+/− mice) |
| --- | --- | --- | --- | --- |
| C=C1CC[C@H](O)C/C1=C/C=C1\CCC[C@]2(C)[C@@H]([C@H](C)CCCC(C)(C)O)CC[C@@H]12 [25(OH)D3, 25-hydroxyvitamin D3] | activated the CAT reporter gene | did not significantly activate the reporter gene |  |  |
| C=C1/C(=C\C=C2/CCC[C@]3(C)[C@@H]([C@H](C)CCCC(C)(C)O)CC[C@@H]23)C[C@@H](O)C[C@@H]1O [1α,25(OH)2D3, 1α,25-Dihydroxyvitamin D3] |  |  | the inhibition did not occurred | significantly inhibited |
